Patent US9102701B2, “17-hydroxy-17-pentafluoroethyl-estra-4,9(10)-diene-11-ethynylphenyl derivatives, methods for the production thereof and use thereof for treating diseases” (Bayer Intellectual Property GmbH, priority 2009, dated 2015)
≈ marks a conversion by molar mass, not a printed value.

Assays:
[1] = Solubility in aqueous medium at pH 7.4; type: physicochemical; conditions: for solubility: aqueous medium, pH 7.4, aqueous buffer; for solubility (in words): aqueous medium under physiological conditions
[2] = biological target: T1, human progesterone receptor B (Homo sapiens, UniProt P06401); assay: Progesterone receptor-antagonistic action in stably transfected SK-N-MC cells, PR-B, MMTV-LUC reporter; type: cell-based; conditions: read-out: IC50 PR-B
T1 construct: expressed in transfected cells; host or cells: SK-N-MC human neuroblastoma cells, stably transfected with pRChPR-B-neo and pMMTV-LUC
T1 sequence (P06401 1-933): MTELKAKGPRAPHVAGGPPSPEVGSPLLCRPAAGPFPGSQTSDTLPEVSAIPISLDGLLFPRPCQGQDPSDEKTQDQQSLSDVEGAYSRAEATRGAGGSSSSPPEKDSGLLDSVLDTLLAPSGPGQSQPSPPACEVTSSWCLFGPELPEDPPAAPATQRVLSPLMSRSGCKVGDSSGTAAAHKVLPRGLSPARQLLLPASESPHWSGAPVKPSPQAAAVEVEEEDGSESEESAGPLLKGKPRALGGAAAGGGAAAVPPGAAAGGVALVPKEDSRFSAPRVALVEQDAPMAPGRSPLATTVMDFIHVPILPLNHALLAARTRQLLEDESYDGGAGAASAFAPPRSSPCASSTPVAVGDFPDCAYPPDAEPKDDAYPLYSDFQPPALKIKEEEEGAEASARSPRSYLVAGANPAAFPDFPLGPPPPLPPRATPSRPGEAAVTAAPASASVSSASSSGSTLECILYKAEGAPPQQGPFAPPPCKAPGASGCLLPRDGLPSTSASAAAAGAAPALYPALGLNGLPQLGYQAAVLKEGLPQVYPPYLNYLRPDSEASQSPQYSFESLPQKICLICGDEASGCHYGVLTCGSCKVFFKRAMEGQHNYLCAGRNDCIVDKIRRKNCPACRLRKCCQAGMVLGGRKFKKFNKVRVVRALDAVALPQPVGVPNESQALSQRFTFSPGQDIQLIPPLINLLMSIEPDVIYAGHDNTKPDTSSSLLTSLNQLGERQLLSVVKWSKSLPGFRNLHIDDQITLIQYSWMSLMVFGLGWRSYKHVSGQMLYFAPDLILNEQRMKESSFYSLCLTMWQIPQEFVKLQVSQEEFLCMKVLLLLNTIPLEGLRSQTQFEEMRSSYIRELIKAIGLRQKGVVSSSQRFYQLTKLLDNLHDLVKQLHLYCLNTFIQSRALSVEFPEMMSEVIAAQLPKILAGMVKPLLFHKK
In short: (§1)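 SK-N-MC neuroblastoma cells stably expressing human PR-A or PR-B plus MMTV-LUC reporter, treated 24 h with compound (0.01 nmol/l upward). Antagonism measured against 0.1 nmol/l promegestone; luciferase in lysates as RLU, given as % efficacy and IC50 (agonism as EC50).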

[3] = Metabolic stability in human liver microsomes; type: in vitro ADME; conditions: for Predicted Fmax (maximum oral bioavailability) Human: calculated from liver microsome data; for Predicted clearance Human: predicted in vivo clearance from liver microsomes, well-stirred model, 1 μM
Description: Determination of Metabolic Stability in Human and Rat Liver Microsomes
Isolated Human Liver Microsomes (HLM) were Used to Assess the Metabolic Stability of compounds of general formula I.
The incubations were conducted with 2.4 ml of HLM solution (protein content 0.5 mg/ml), 30 μl of the test compound (final concentration 1 μM) and 0.6 ml of the cofactor mixture (═NADPH-generating system composed of 3 IU glucose-6-phosphate dehydrogenase, 14.6 mg glucose-6-phosphate, 1.2 mg NADP) at 37° C. in 100 mM phosphate buffer at pH 7.4. Samples were taken at 6 time points (2-60 min) and precipitated with an equal volume of methanol, and the recovery of the test substances used in the supernatant was determined by LC-MS/MS analysis. The half-life of substance degradation determined therefrom was used to calculate what is called the intrinsic clearance of the substance in the liver microsome preparation.

[4] = biological target: T2, human progesterone receptor A (Homo sapiens, UniProt P06401); assay: Progesterone receptor-antagonistic action in stably transfected SK-N-MC cells, PR-A, MMTV-LUC reporter; type: cell-based; conditions: read-out: IC50 PR-A
T2 construct: expressed in transfected cells; host or cells: SK-N-MC human neuroblastoma cells, stably transfected with pRChPR-A-neo and pMMTV-LUC
T2 sequence (P06401 1-769 isoform P06401-2): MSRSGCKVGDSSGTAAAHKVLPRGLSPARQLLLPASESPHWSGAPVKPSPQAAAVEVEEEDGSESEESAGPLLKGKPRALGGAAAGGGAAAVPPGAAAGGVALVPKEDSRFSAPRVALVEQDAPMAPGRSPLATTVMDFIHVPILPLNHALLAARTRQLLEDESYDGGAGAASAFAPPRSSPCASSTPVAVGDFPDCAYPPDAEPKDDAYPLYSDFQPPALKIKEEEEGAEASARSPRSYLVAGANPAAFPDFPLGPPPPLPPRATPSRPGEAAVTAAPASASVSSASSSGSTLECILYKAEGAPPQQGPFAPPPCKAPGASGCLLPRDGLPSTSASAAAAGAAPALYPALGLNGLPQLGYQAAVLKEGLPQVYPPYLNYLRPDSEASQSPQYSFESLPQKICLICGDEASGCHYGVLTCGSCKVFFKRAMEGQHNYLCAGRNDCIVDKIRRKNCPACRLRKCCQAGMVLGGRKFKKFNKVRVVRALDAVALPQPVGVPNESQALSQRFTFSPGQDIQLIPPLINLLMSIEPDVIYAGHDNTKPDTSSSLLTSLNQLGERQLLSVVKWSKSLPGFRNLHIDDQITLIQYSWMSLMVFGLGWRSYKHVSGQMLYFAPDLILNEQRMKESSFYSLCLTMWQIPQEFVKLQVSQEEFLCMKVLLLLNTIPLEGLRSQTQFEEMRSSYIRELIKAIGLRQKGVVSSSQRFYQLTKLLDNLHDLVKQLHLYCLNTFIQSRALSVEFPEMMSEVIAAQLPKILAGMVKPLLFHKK
In short: as §1

pregnant rats = assay: Abortion test on female rats; type: in vivo; conditions: d5-d7 p.c., autopsy d9 p.c.
Description: Abortion Test on Female Rats
The action of progesterone and of the progesterone receptor is a fundamental precondition for successful pregnancy or gestation in mammals. The progesterone-antagonistic action of the inventive compounds was tested on pregnant rats (6 rats per group) on days 5 to 7 post coitum under conventional housing and feeding conditions.
After successful mating, the pregnant animals (presence of sperm in the vaginal smear on day 1 of pregnancy=d1 p.c.) were randomized and divided into the treatment group and the control group. The animals then each received subcutaneously or orally 0.15; 0.5; 1.5 or 5 mg/kg of the test compound or 1.0 ml/kg of vehicle (benzyl benzoate/castor oil: 1+4 [v/v]) daily from day 5 to day 7 (d5−d7 p.c.).
Autopsy was conducted on day 9 (d9 p.c.). As a characteristic of progesterone receptor-antagonistic action, the uterus was examined for the presence of nidation sites. Complete absence, or else the presence of pathological, haemorrhagic or otherwise abnormal nidation sites, on day 9 (d9 p.c.) was considered as abortion.

| Compound | solubility [1] [µg/mL] | IC50 [2] [nM] | Predicted Fmax (maximum oral bioavailability) Human [3] [%] | Predicted clearance Human [3] [mL/min/kg] | IC50 [4] [nM] | solubility (in words) [1] | Abortion rate (pregnant rats; daily dose 0.5 mg/kg p.o.) [%] | Abortion rate (pregnant rats; daily dose 1.5 mg/kg p.o.) [%] | Abortion rate (pregnant rats; daily dose 5.0 mg/kg p.o.) [%] |
| --- | --- | --- | --- | --- | --- | --- | --- | --- | --- |
| C[C@]12C[C@H](c3ccc(C#CCNC(=O)Nc4ccc(F)cc4)cc3)C3=C4CCC(=O)C=C4CC[C@H]3[C@@H]1CC[C@@]2(O)C(F)(F)C(F)(F)F [Example 36, 1-{3-[4-((8S,11R,13S,14S,17S)-17-hydroxy-13-methyl-3-oxo-17-pentafluoroethyl-2,3,6,7,8,11,12,13,14,15,16,17-dodecahydro-1H-cyclopenta[a]phenanthren-11-yl)phenyl]prop-2-ynyl}-3-(4-fluorophenyl)urea] | 4 (≈ 6.09 µM) | 0.2 | 55 | 10 | 0.1 |  |  |  |  |
| C[C@]12C[C@H](c3ccc(C#C/C=N/OCc4ccccc4)cc3)C3=C4CCC(=O)C=C4CCC3C1CC[C@@]2(O)C(F)(F)C(F)(F)F (stereo partly drawn) [Example 24A, (E)-[4-((8S,11R,13S,14S,17S)-17-hydroxy-13-methyl-3-oxo-17-pentafluoroethyl-2,3,6,7,8,11,12,13,14,15,16,17-dodecahydro-1H-cyclopenta[a]phenanthren-1′-yl)phenyl]propynal O-benzyl oxime] | 5 (≈ 8.02 µM) | 0.1 | 34 | 14.7 | 0.1 |  |  |  |  |
| C[C@]12C[C@H](c3ccc(C#CCOCCO)cc3)C3=C4CCC(=O)C=C4CC[C@H]3[C@@H]1CC[C@@]2(O)C(F)(F)C(F)(F)F [Example 11, (8S,11R,13S,14S,17S)-17-hydroxy-11-{4-[3-(2-hydroxyethoxy)prop-1-yn-1-yl]-phenyl}-13-methyl-17-pentafluoroethyl-1,2,6,7,8,11,12,13,14,15,16,17-dodecahydrocyclopenta[a]phenanthren-3-one] | 30 (≈ 53.1 µM) | 1 | 63 | 8.17 | 0.32 | improved solubility |  |  |  |
| C[C@]12C[C@H](c3ccc(C#CCO)cc3)C3=C4CCC(=O)C=C4CC[C@H]3[C@@H]1CC[C@@]2(O)C(F)(F)C(F)(F)F [Example 1, (8S,11R,13S,14S,17S)-17-hydroxy-11-[4-(3-hydroxyprop-1-yn-1-yl)phenyl]-13-methyl-17-pentafluoroethyl-1,2,6,7,8,11,12,13,14,15,16,17-dodecahydrocyclopenta[a]phenanthren-3-one] | 13 (≈ 25 µM) | 0.11 |  | 5.33 | 0.097 |  | 100 | 100 | 100 |
| C[C@]12C[C@H](c3ccc(C#CCNC(=O)Nc4ccccc4)cc3)C3=C4CCC(=O)C=C4CC[C@H]3[C@@H]1CC[C@@]2(O)C(F)(F)C(F)(F)F [Example 34, 1-{3-[4-((8S,11R,13S,14S,17S)-17-hydroxy-13-methyl-3-oxo-17-pentafluoroethyl-2,3,6,7,8,11,12,13,14,15,16,17-dodecahydro-1H-cyclopenta[a]phenanthren-11-yl)phenyl]prop-2-ynyl}-3-phenylurea] | 7 (≈ 11 µM) | 0.1 | 9 | 20.2 | 0.1 |  |  |  |  |
| C[C@]12C[C@H](c3ccc(C#C/C=C\C#N)cc3)C3=C4CCC(=O)C=C4CCC3C1CC[C@@]2(O)C(F)(F)C(F)(F)F (stereo partly drawn) [Example 5, (Z)-5-[4-((8S,11R,13S,14S,17S)-17-hydroxy-13-methyl-3-oxo-17-pentafluoroethyl-2,3,6,7,8,11,12,13,14,15,16,17-dodecahydro-1H-cyclopenta[a]phenanthren-1′-yl)phenyl]pent-2-en-4-ynenitrile] | 8 (≈ 14.8 µM) | 0.76 |  | 2.83 | 0.72 |  |  |  |  |
| C[C@]12C[C@H](c3ccc(C#CC(=O)O)cc3)C3=C4CCC(=O)C=C4CCC3C1CC[C@@]2(O)C(F)(F)C(F)(F)F (stereo partly drawn) [Example 2, [4-((8S,11R,13S,14S,17S)-17-hydroxy-13-methyl-3-oxo-17-pentafluoroethyl-2,3,6,7,8,11,12,13,14,15,16,17-dodecahydro-4H-cyclopenta[a]phenanthren-11-yl)phenyl]propynoic acid] | 178 (≈ 333 µM) | 16 |  | 0 | 32 | improved solubility |  |  |  |
| C[C@]12C[C@H](c3ccc(C#C/C=C/c4cccc(C(=O)O)c4)cc3)C3=C4CCC(=O)C=C4CCC3C1CC[C@@]2(O)C(F)(F)C(F)(F)F (stereo partly drawn) [Example 13A, 3-{(E)-4-[4-((8S,11R,13S,14S,17S)-17-hydroxy-13-methyl-3-oxo-17-pentafluoroethyl-2,3,6,7,8,11,12,13,14,15,16,17-dodecahydro-1H-cyclopenta[a]phenanthren-1′-yl)phenyl]but-1-en-3-ynyl}benzoic acid] | 148 (≈ 232 µM) | 0.2 |  | 5.17 | 0.1 | improved solubility |  |  |  |
